Laboratory results taken from PubChem BioAssay AID228 (DTP/NCI, 2004).
“And” between values parts separate entries of the source, which are not always exact repeats. Equal entries are not always repeated. Inconclusive results are not listed.

Test system: BDF1 mice, Friend leukemia sc, tumor weight T/C
Assay: NCI In Vivo Anticancer Drug Screen. Data for tumor model Friend Virus Leukemia (Solid) (subcutaneous) in B6D2F1 (BDF1) mice
Conditions: endpoint: mean tumor weight, higher = larger tumour
Procedure: The antitumor activity of compounds was measured in mice bearing transplantable tumors. Survival or tumor size were measured and the results are expressed as the measurement made in the treated group (T) divided by the measurement made in the vehicle treated control group (C). The tumor model used in this assay is Friend Virus Leukemia (Solid) (subcutaneous) in B6D2F1 (BDF1) mice

[1] = dose: 2.0 mg/kg/injection, schedule: Q01DX011 (ip), vehicle: carboxymethylcellulose (CMC)
[2] = dose: 4.0 mg/kg/injection, schedule: Q01DX011 (ip), vehicle: carboxymethylcellulose (CMC)
[3] = dose: 100.0 mg/kg/injection, schedule: Q01DX011 (ip), vehicle: carboxymethylcellulose (CMC)
[4] = dose: 50.0 mg/kg/injection, schedule: Q01DX011 (ip), vehicle: other
[5] = dose: 100.0 mg/kg/injection, schedule: Q01DX011 (ip), vehicle: other
[6] = dose: 200.0 mg/kg/injection, schedule: Q01DX011 (ip), vehicle: other
[7] = dose: 7.5 mg/kg/injection, schedule: Q01DX011 (ip), vehicle: carboxymethylcellulose (CMC)
[8] = dose: 15.0 mg/kg/injection, schedule: Q01DX011 (ip), vehicle: carboxymethylcellulose (CMC)

## c1ccc(CSc2ncnc3nc[nH]c23)nc1
[1]
  T/C: 88 % of control
[2]
  T/C: 46 % of control
dose: 9.0 mg/kg/injection, schedule: Q01DX011 (ip), vehicle: carboxymethylcellulose (CMC)
  T/C: 33 % of control and 39 % of control
dose: 18.0 mg/kg/injection, schedule: Q01DX011 (ip), vehicle: carboxymethylcellulose (CMC)
  T/C: 3 % of control and 7 % of control
dose: 37.0 mg/kg/injection, schedule: Q01DX011 (ip), vehicle: carboxymethylcellulose (CMC)
  T/C: 6 % of control and 18 % of control

## C[C@H](N)C(=O)N[C@@H]1[C@H]2C(=C(O)C[C@@H](O)[C@@H]2O)C(=O)O[C@@H]1C
[3]
  T/C: 43 % of control
dose: 200.0 mg/kg/injection, schedule: Q01DX011 (ip), vehicle: carboxymethylcellulose (CMC)
  T/C: 48 % of control
dose: 1000.0 mg/kg/injection, schedule: Q01DX011 (ip), vehicle: carboxymethylcellulose (CMC)
  T/C: 17 % of control

## Nc1ncnc2c1ccn2C1OC(CO)C(O)C1O (stereo not drawn)
dose: 0.6 mg/kg/injection, schedule: Q01DX011 (ip), vehicle: carboxymethylcellulose (CMC)
  T/C: 104 % of control
dose: 1.25 mg/kg/injection, schedule: Q01DX011 (ip), vehicle: carboxymethylcellulose (CMC)
  T/C: 72 % of control

## CN(Cc1cnc2nc(N)nc(N)c2n1)c1ccc(C(=O)N[C@@H](CCC(=O)O)C(=O)O)cc1
dose: 0.37 mg/kg/injection, schedule: Q01DX011 (ip), vehicle: saline
  T/C: 68 % of control
dose: 0.5 mg/kg/injection, schedule: Q01DX011 (ip), vehicle: carboxymethylcellulose (CMC)
  T/C: 44 % of control
dose: 0.75 mg/kg/injection, schedule: Q01DX011 (ip), vehicle: saline
  T/C: 91 % of control
dose: 0.8 mg/kg/injection, schedule: Q01DX011 (ip), vehicle: carboxymethylcellulose (CMC)
  T/C: 71 % of control and 88 % of control
dose: 1.4 mg/kg/injection, schedule: Q01DX011 (ip), vehicle: carboxymethylcellulose (CMC)
  T/C: 36 % of control
dose: 1.5 mg/kg/injection, schedule: Q01DX011 (ip), vehicle: carboxymethylcellulose (CMC)
  T/C: 16 % of control
dose: 1.5 mg/kg/injection, schedule: Q01DX011 (ip), vehicle: saline
  T/C: 49 % of control

## NC(N)=N/N=C/C=N/N=C(N)N
dose: 50.0 mg/kg/injection, schedule: Q01DX011 (ip), vehicle: saline
  T/C: 189 % of control

## CO[C@H]1CC[C@@]2(C)[C@@H](CC[C@H]3[C@@H]4C[C@H](O)C[C@@]4(C)CC[C@@H]32)C1
dose: 10.0 mg/kg/injection, schedule: Q01DX011 (sc), vehicle: steriod suspending solution
  T/C: 108 % of control
dose: 15.0 mg/kg/injection, schedule: Q01DX011 (sc), vehicle: steriod suspending solution
  T/C: 104 % of control

## NNC(=O)c1nsnc1NC(N)=O
dose: 43.0 mg/kg/injection, schedule: Q01DX011 (ip), vehicle: carboxymethylcellulose (CMC)
  T/C: 53 % of control
dose: 60.0 mg/kg/injection, schedule: Q01DX011 (ip), vehicle: carboxymethylcellulose (CMC)
  T/C: 46 % of control

## Cc1nc(N2CC2)nc(N2CC2)c1[N+](=O)[O-]
[1]
  T/C: 70 % of control
dose: 3.0 mg/kg/injection, schedule: Q01DX011 (ip), vehicle: carboxymethylcellulose (CMC)
  T/C: 39 % of control
[2]
  T/C: 41 % of control
dose: 6.0 mg/kg/injection, schedule: Q01DX011 (ip), vehicle: carboxymethylcellulose (CMC)
  T/C: 63 % of control and 40 % of control

## NC(=O)n1cccn1
dose: 25.0 mg/kg/injection, schedule: Q01DX011 (ip), vehicle: other
  T/C: 107 % of control
[4]
  T/C: 120 % of control
[5]
  T/C: 78 % of control
dose: 150.0 mg/kg/injection, schedule: Q01DX011 (ip), vehicle: other
  T/C: 13 % of control
[6]
  T/C: 28 % of control

## O=C(O)Cc1ccc(C2CCCCC2)cc1
dose: 37.5 mg/kg/injection, schedule: Q01DX011 (ip), vehicle: carboxymethylcellulose (CMC)
  T/C: 106 % of control
dose: 75.0 mg/kg/injection, schedule: Q01DX011 (ip), vehicle: carboxymethylcellulose (CMC)
  T/C: 114 % of control
dose: 150.0 mg/kg/injection, schedule: Q01DX011 (ip), vehicle: carboxymethylcellulose (CMC)
  T/C: 106 % of control
dose: 300.0 mg/kg/injection, schedule: Q01DX011 (ip), vehicle: carboxymethylcellulose (CMC)
  T/C: 94 % of control

## CCN(CC)c1ccc2cc3ccc(=[N+](CC)CC)cc-3oc2c1
dose: 5.0 mg/kg/injection, schedule: Q01DX011 (ip), vehicle: carboxymethylcellulose (CMC)
  T/C: 102 % of control

## CCOC(=O)Sc1ncnc2nc[nH]c12
[7]
  T/C: 44 % of control
[8]
  T/C: 48 % of control
dose: 25.0 mg/kg/injection, schedule: Q01DX011 (ip), vehicle: carboxymethylcellulose (CMC)
  T/C: 29 % of control and 40 % of control
dose: 50.0 mg/kg/injection, schedule: Q01DX011 (ip), vehicle: carboxymethylcellulose (CMC)
  T/C: 17 % of control
[3]
  T/C: 2 % of control

## CCCCSc1ncnc2nc[nH]c12
dose: 16.0 mg/kg/injection, schedule: Q01DX011 (ip), vehicle: saline
  T/C: 101 % of control
dose: 31.0 mg/kg/injection, schedule: Q01DX011 (ip), vehicle: saline
  T/C: 121 % of control
dose: 62.0 mg/kg/injection, schedule: Q01DX011 (ip), vehicle: saline
  T/C: 99 % of control
dose: 125.0 mg/kg/injection, schedule: Q01DX011 (ip), vehicle: saline
  T/C: 62 % of control

## CSc1ncc(Br)c(Sc2nc(N)nc3nc[nH]c23)n1
dose: 3.12 mg/kg/injection, schedule: Q01DX011 (ip), vehicle: carboxymethylcellulose (CMC)
  T/C: 92 % of control
dose: 6.25 mg/kg/injection, schedule: Q01DX011 (ip), vehicle: carboxymethylcellulose (CMC)
  T/C: 81 % of control
dose: 12.5 mg/kg/injection, schedule: Q01DX011 (ip), vehicle: carboxymethylcellulose (CMC)
  T/C: 51 % of control

## CC(=O)OCC(=O)[C@@]1(O)CC[C@H]2[C@@H]3CCC4=CC(=O)CC[C@]4(C)[C@H]3[C@@H](O)C[C@@]21C
dose: 2.25 mg/kg/injection, schedule: Q01DX011 (sc), vehicle: steriod suspending solution
  T/C: 267 % of control
dose: 8.5 mg/kg/injection, schedule: Q01DX011 (sc), vehicle: steriod suspending solution
  T/C: 73 % of control
dose: 9.0 mg/kg/injection, schedule: Q01DX011 (sc), vehicle: steriod suspending solution
  T/C: 88 % of control
dose: 17.0 mg/kg/injection, schedule: Q01DX011 (sc), vehicle: steriod suspending solution
  T/C: 105 % of control
dose: 30.0 mg/kg/injection, schedule: Q01DX011 (sc), vehicle: steriod suspending solution
  T/C: 44 % of control
dose: 60.0 mg/kg/injection, schedule: Q01DX011 (sc), vehicle: steriod suspending solution
  T/C: 32 % of control
dose: 68.0 mg/kg/injection, schedule: Q01DX011 (sc), vehicle: steriod suspending solution
  T/C: 60 % of control
dose: 90.0 mg/kg/injection, schedule: Q01DX011 (sc), vehicle: steriod suspending solution
  T/C: 29 % of control

## C=CC(CN1CC1)OC(C)=O (stereo not drawn)
dose: 1.2 mg/kg/injection, schedule: Q01DX011 (ip), vehicle: carboxymethylcellulose (CMC)
  T/C: 70 % of control
dose: 2.4 mg/kg/injection, schedule: Q01DX011 (ip), vehicle: carboxymethylcellulose (CMC)
  T/C: 89 % of control
dose: 2.5 mg/kg/injection, schedule: Q01DX011 (ip), vehicle: saline
  T/C: 50 % of control
dose: 4.8 mg/kg/injection, schedule: Q01DX011 (ip), vehicle: carboxymethylcellulose (CMC)
  T/C: 36 % of control
dose: 5.0 mg/kg/injection, schedule: Q01DX011 (ip), vehicle: saline
  T/C: 31 % of control
dose: 7.5 mg/kg/injection, schedule: Q01DX011 (ip), vehicle: saline
  T/C: 26 % of control
dose: 9.9 mg/kg/injection, schedule: Q01DX011 (ip), vehicle: saline
  T/C: 3 % of control

## O=C(NO)c1ccncc1
dose: 250.0 mg/kg/injection, schedule: Q01DX011 (ip), vehicle: saline
  T/C: 79 % of control
dose: 500.0 mg/kg/injection, schedule: Q01DX011 (ip), vehicle: saline
  T/C: 78 % of control and 86 % of control
dose: 750.0 mg/kg/injection, schedule: Q01DX011 (ip), vehicle: saline
  T/C: 42 % of control and 48 % of control
dose: 950.0 mg/kg/injection, schedule: Q01DX011 (ip), vehicle: saline
  T/C: 7 % of control

## CC1CCC2(C(=O)O)CCC3(C)C(=CCC4C5(C)CCC(O)C(C)(C)C5CCC43C)C2C1C (stereo not drawn)
[4]
  T/C: 76 % of control
[5]
  T/C: 69 % of control
[6]
  T/C: 115 % of control

## CCOC(=O)NP(=O)(N1CC1)N1CC1
dose: 2.87 mg/kg/injection, schedule: Q01DX011 (ip), vehicle: carboxymethylcellulose (CMC)
  T/C: 78 % of control
dose: 4.75 mg/kg/injection, schedule: Q01DX011 (ip), vehicle: carboxymethylcellulose (CMC)
  T/C: 77 % of control
dose: 9.5 mg/kg/injection, schedule: Q01DX011 (ip), vehicle: carboxymethylcellulose (CMC)
  T/C: 36 % of control
dose: 19.0 mg/kg/injection, schedule: Q01DX011 (ip), vehicle: carboxymethylcellulose (CMC)
  T/C: 5 % of control

## Nc1nc(N)c(N=O)c(Nc2ccc(Cl)c(Cl)c2)n1
dose: 3.75 mg/kg/injection, schedule: Q01DX011 (ip), vehicle: carboxymethylcellulose (CMC)
  T/C: 153 % of control
[7]
  T/C: 69 % of control
[8]
  T/C: 109 % of control
dose: 30.0 mg/kg/injection, schedule: Q01DX011 (ip), vehicle: carboxymethylcellulose (CMC)
  T/C: 91 % of control
